pIC50: −log10 of the molar value. Values after ≈ are worked out from the molar mass of the structure shown.

Sequence of Metabotropic glutamate receptor 5 (P41594 whole entry): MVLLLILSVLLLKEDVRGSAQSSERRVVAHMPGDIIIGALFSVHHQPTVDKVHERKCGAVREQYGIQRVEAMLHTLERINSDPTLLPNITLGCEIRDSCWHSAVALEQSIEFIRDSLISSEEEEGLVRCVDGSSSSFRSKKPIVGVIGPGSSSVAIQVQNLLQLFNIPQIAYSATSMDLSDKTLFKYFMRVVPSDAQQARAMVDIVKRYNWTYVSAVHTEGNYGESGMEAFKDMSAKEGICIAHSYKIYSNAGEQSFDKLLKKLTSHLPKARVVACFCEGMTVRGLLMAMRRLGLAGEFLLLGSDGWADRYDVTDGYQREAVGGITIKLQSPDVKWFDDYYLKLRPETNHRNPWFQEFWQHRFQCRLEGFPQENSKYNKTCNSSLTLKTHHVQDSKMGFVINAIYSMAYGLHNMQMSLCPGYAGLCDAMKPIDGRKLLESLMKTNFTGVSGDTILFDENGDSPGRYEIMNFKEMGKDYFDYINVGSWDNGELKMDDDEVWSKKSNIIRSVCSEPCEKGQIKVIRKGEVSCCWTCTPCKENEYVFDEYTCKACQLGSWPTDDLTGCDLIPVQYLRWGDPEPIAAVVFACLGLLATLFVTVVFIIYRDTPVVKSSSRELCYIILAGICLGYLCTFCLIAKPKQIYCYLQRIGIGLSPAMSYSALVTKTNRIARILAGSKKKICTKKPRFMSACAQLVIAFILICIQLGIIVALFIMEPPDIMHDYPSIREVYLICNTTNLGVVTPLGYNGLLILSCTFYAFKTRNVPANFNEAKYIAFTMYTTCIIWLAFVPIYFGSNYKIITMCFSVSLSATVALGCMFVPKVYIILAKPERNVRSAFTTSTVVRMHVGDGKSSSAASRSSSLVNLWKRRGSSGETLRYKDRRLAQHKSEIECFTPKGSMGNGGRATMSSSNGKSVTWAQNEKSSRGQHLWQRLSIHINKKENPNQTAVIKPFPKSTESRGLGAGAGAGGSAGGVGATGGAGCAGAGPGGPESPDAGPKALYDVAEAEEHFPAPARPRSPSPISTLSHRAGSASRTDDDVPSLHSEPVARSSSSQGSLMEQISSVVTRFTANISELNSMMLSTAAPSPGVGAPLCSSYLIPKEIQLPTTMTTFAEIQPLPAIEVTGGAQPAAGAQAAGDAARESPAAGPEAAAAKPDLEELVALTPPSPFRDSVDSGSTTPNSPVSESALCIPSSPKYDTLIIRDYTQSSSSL

One data set addresses Metabotropic glutamate receptor 5 (Homo sapiens, UniProt P41594). Description: Antagonist activity at human mGluR5 expressed in CHO cells assessed as increase in intracellular calcium level by FLIPR. In kind it is functional, cell-based.
Conditions: not given
For orientation: pIC50 means the negative decadic logarithm of the IC50, by convention in mol/L. Take `Cc1cn2cc(C(F)(F)F)cc2c(C#Cc2cccc(C(=O)O)c2)n1`: the pIC50 is < 4.90.

On to `Cc1cn2cc(C(F)(F)F)cc2c(C#Cc2ccc(NS(C)(=O)=O)cc2)n1`, for which the negative-log IC50 (pIC50) was < 4.80. In the case of `Cc1cn2cc(C(F)(F)F)cc2c(C#Cc2cccc(-c3ccoc3)c2)n1`, the negative-log IC50 (pIC50) was 5.00.

Consider `Cc1cn2cc(C(F)(F)F)cc2c(C#Cc2cccc(-c3c(C)noc3C)c2)n1`, for which the pIC50 was < 4.90.

As for `Cc1cn2cc(C(=O)N3CCCCC3C)cc2c(C#Cc2ccsc2)n1` (configuration not stated), the negative logarithm of the IC50 (pIC50) is 7.00. The same measure, in the same setting: under `Cc1cn2cc(C(=O)N3CCCC3C)cc2c(C#Cc2ccsc2)n1` (configuration not stated) stands 7.40. As to `Cc1cc2c(C#Cc3ccc(C(F)(F)F)cc3)nc(C)cn2c1`, the negative-log IC50 (pIC50) is < 4.80. Regarding `Cc1cn2cc(C(N)=O)cc2c(C#Cc2ccccc2F)n1`, the pIC50 is 6.30. For the compound `Cc1cn2cccc2c(C#Cc2ccc(Br)cc2)n1`, the negative-log IC50 (pIC50) was < 4.90. In the case of `Cc1cn2cc(C#N)cc2c(C#Cc2cccc(F)c2)n1`, the pIC50 is 9.10. On the same count and under the same terms, under `Cc1cn2cc(C(F)(F)F)cc2c(C#Cc2cccc(Br)c2)n1` stands 7.60; under `Cc1cn2cc(C(F)(F)F)cc2c(C#Cc2cccc(-c3ccsc3)c2)n1`, 5.30. Take `Cc1cc2c(C#Cc3cccnc3)nc(C)cn2c1`: the negative-log IC50 (pIC50) was 5.70. `Cc1cn2cc(C(=O)N3CCN(C)CC3)cc2c(C#Cc2cccc(C(F)(F)F)c2)n1`: the negative-log IC50 (pIC50) was 6.60. Regarding `Cc1cc2c(C#Cc3ccccc3)nc(C)cn2c1`, the negative-log IC50 (pIC50) is 7.30. Still for that read-out and setting: under `Cc1cccc(C#Cc2nc(C)cn3cccc23)c1` stands 9.40. `Cc1cn2cc(C(F)(F)F)cc2c(C#Cc2cccnc2)n1`: the negative-log IC50 (pIC50) is 6.30.

For the compound `Cc1cn2cc(C(F)(F)F)cc2c(C#Cc2ccc(C#N)cc2)n1`, the pIC50 is < 4.80.

`Cc1cn2cc(CN3CCNC(=O)C3)cc2c(C#Cc2ccccc2)n1`: the pIC50 was 6.70.

For `Cc1cn2cc(C(=O)N3CCC(F)(F)C3)cc2c(C#Cc2ccsc2)n1`, the negative-log IC50 (pIC50) is 6.90. In the case of `CCOC(=O)c1cc2c(C#Cc3ccc(C#N)cc3)nc(C)cn2c1`, the pIC50 is < 4.80. As for `Cc1cn2cc(C(=O)N3CCN(C)CC3)cc2c(C#Cc2ccsc2)n1`, the pIC50 was 6.80. Take `Cc1cn2cc(C(=O)N3CCCC3)cc2c(C#Cc2ccsc2)n1`: the pIC50 is 7.70.

Turning to `Cc1cn2cc(C(F)(F)F)cc2c(C#Cc2cccs2)n1`, the pIC50 is 7.20.

On to `Cc1cn2cc(C(F)(F)F)cc2c(C#Cc2ccc(C(F)(F)F)cc2)n1`, for which the pIC50 is < 4.80. In the case of `Cc1cn2cc(C(F)(F)F)cc2c(C#Cc2ccc(F)cc2F)n1`, the negative logarithm of the IC50 (pIC50) is < 4.80.

Test system in a further data set: not listed separately
Description: Solubility at pH 7.4. The data set is classed as physicochemical. The conditions noted are these: buffer.
What is called solubility is the dissolved amount per volume that the medium holds. Higher therefore signals much dissolved substance. `Cc1cccc(C#Cc2ccccc2)n1`: the concentration in solution (solubility) came to 0.07 mg/mL (≈ 362 µM).
